From patent US20110039763A1, “TARGETED ANTIMICROBIAL MOIETIES” (C3 JIAN, INC., priority 2009, published 2011)
“Also recorded” adds a separate entry of the source.

System: microorganisms
Assay: Targeting peptide binding to target microorganisms (Tables 3, 10, 12)
Settings: microorganism(s) the targeting peptide binds; binding in aqueous buffers varied with peptide solubility, preferably 1x PBS

Substance	Target(s)
PF-500 (MGIFKEEKIKFIDCKGEEVILKIKIKDIKK; Peptide with targeting and/or antimicrobial activity)	S. mutans; also recorded: E. coli
PF-501 (GSTAHKSPIGSTNNQWGMKKTPTD; Peptide with targeting and/or antimicrobial activity)	S. mutans
PF-502 (NKGKQMQDQTGKQPIVDNG; Peptide with targeting and/or antimicrobial activity)	S. mutans
PF-503 (VVTLKDIVAVIEDQGYDVQ; Peptide with targeting and/or antimicrobial activity)	S. mutans
PF-504 (ILSVELSTKTSASGS; Peptide with targeting and/or antimicrobial activity)	S. mutans; also recorded: E. coli
PF-505 (GYTKDPGTGI; Peptide with targeting and/or antimicrobial activity)	S. mutans
PF-506 (SGRGFALIVVLFILLIIVGAACIR; Peptide with targeting and/or antimicrobial activity)	S. mutans; also recorded: E. coli
PF-507 (LALSIANLFKKKA; Peptide with targeting and/or antimicrobial activity)	S. mutans; also recorded: E. coli
PF-508 (VSTFGKVVKVVDEK; Peptide with targeting and/or antimicrobial activity)	S. mutans
PF-509 (EAKVQAKGEQIACNNY; Peptide with targeting and/or antimicrobial activity)	S. mutans; also recorded: B. subtilis; also recorded: E. coli
PF-510 (WYLYKKQSNQNDRGIPK; Peptide with targeting and/or antimicrobial activity)	S. mutans; also recorded: E. coli
PF-568 (TQAVQVKTAQAQQQ; Peptide with targeting and/or antimicrobial activity)	S. epidermidis
PF-570 (KKFPTEESHIQAVLEFKKLTEHPSG; Peptide with targeting and/or antimicrobial activity)	S. pneumoniae; also recorded: C. jeikeium
PF-641 (SWKCHHLAIGGSWKCHHLAI; Peptide with targeting and/or antimicrobial activity)	S. epidermidis and M. luteus and E. coli and C. albicans and MRSA and E. faecalis and C. jeikeium and C. jejuni
PF-648 (ARRYPAAGS; Peptide with targeting and/or antimicrobial activity)	S. mutans; also recorded: E. coli
PF-650 (IRSDQPGRQSRSSPRWPTGAGRHR; Peptide with targeting and/or antimicrobial activity)	Mycobacteria spp
PF-669 (RADRIESYPADGDRVITLWRNPYR; Peptide with targeting and/or antimicrobial activity)	Mycobacteria spp
PF-671 (TVSAFRTVH; Peptide with targeting and/or antimicrobial activity)	S. mutans; also recorded: E. coli
PF-673 (VRRLRM; Peptide with targeting and/or antimicrobial activity)	S. mutans; also recorded: E. coli
PF-674 (DGCDSEPALTYR; Peptide with targeting and/or antimicrobial activity)	S. mutans; also recorded: E. coli

Substance	Target(s)
PF-676 (AEYRGL; Peptide with targeting and/or antimicrobial activity)	S. mutans; also recorded: E. coli
PF-678 (RDRRWTRRDMYDWLESARV; Peptide with targeting and/or antimicrobial activity)	Mycobacteria spp
PF-679 (CRARFIRR; Peptide with targeting and/or antimicrobial activity)	S. mutans; also recorded: E. coli
PF-689 (SAPSG; Peptide with targeting and/or antimicrobial activity)	S. mutans; also recorded: E. coli
PF-701 (PRGAQSGHG; Peptide with targeting and/or antimicrobial activity)	S. mutans
PF-703 (MTTVDNIVGLVIAVALMAFLFAALLFPEKF; Peptide with targeting and/or antimicrobial activity)	Mycobacteria spp
PF-705 (GEEEGTVAD; Peptide with targeting and/or antimicrobial activity)	S. mutans; also recorded: E. coli
PF-706 (LGYGAWIGCGLGLNGFHRID; Peptide with targeting and/or antimicrobial activity)	L. pneumophila
PF-707 (IDPESIVTTNNKQDNVDEQ; Peptide with targeting and/or antimicrobial activity)	S. mutans; also recorded: E. coli
PF-709 (NKKHSPMD; Peptide with targeting and/or antimicrobial activity)	S. mutans
PF-711 (KTAGPTGTIYKTN; Peptide with targeting and/or antimicrobial activity)	S. mutans
PF-712 (QIYRHVHKVQAKSANLRLY; Peptide with targeting and/or antimicrobial activity)	S. mutans; also recorded: E. coli
PF-714 (FVVTQRMLRMYKK; Peptide with targeting and/or antimicrobial activity)	L. pneumophila
PF-716 (HGENHHHKSDEKDNDSSEKKD; Peptide with targeting and/or antimicrobial activity)	S. mutans
PF-717 (PQSEVTFENIYAPKANGGGLYGI; Peptide with targeting and/or antimicrobial activity)	E. coli
PF-720 (SLDMGK; Peptide with targeting and/or antimicrobial activity)	S. mutans
PF-724 (CYRFLTPKRPTRIS; Peptide with targeting and/or antimicrobial activity)	L. pneumophila
PF-727 (AYARCRHDYPFTLGQMQTH; Peptide with targeting and/or antimicrobial activity)	S. mutans; also recorded: E. coli
PF-728 (AIGQEQDRREYYYYSGYPYYY; Peptide with targeting and/or antimicrobial activity)	S. mutans; also recorded: E. coli
PF-731 (RHKLIRLPLSESVFCFLNNPKI; Peptide with targeting and/or antimicrobial activity)	L. pneumophila

Substance	Target(s)
PF-732 (DRPSQTTHHTLSSSRITGPS; Peptide with targeting and/or antimicrobial activity)	E. coli
PF-733 (VISRQMGSEAVLELFIIM; Peptide with targeting and/or antimicrobial activity)	S. mutans; also recorded: E. coli
PF-735 (YDPLFPNDKN; Peptide with targeting and/or antimicrobial activity)	S. mutans; also recorded: E. coli
PF-750 (AESSPAKTTA; Peptide with targeting and/or antimicrobial activity)	M. luteus; also recorded: C. jeikeium
PF-751 (AESSPAQETT; Peptide with targeting and/or antimicrobial activity)	S. epidermidis; also recorded: E. coli; also recorded: C. albicans; also recorded: C. jeikeium
PF-765 (YLYWEVEHKPIIAKRDAYYAQLRKQKEIEEGA; Peptide with targeting and/or antimicrobial activity)	S. epidermidis and M. luteus and E. coli and MRSA and E. faecalis and C. jeikeium
PF-766 (DAYYAQLRKQKEIEEGA; Peptide with targeting and/or antimicrobial activity)	S. epidermidis and M. luteus and C. albicans and MRSA and E. faecalis and C. jeikeium
PF-767 (DGKQGEPVALKPTDN; Peptide with targeting and/or antimicrobial activity)	S. epidermidis and M. luteus and E. coli and MRSA and S. pneumoniae and E. faecalis and C. jeikeium
PF-768 (GFRGGKRGGARG; Peptide with targeting and/or antimicrobial activity)	S. epidermidis; also recorded: S. pneumoniae; also recorded: E. faecalis; also recorded: C. jeikeium
PF-772 (TKESSS; Peptide with targeting and/or antimicrobial activity)	S. epidermidis and C. albicans and MRSA and S. pneumoniae and C. jeikeium
PF-773 (TLKESK; Peptide with targeting and/or antimicrobial activity)	S. epidermidis; also recorded: C. albicans; also recorded: C. jeikeium
PF-777 (PGADGKLAEASAAIARLVRS; Peptide with targeting and/or antimicrobial activity)	Mycobacteria spp.
PF-778 (MNLILTAHGT; Peptide with targeting and/or antimicrobial activity)	Mycobacteria spp.
PF-779 (IYGDFFNFYLCDISLKVNGLQPGGPVRTVKLFGQPTGRCTPQ; Peptide with targeting and/or antimicrobial activity)	Mycobacteria spp.
PF-780 (AVYDALVALAAAEHRAELATRDARAKDTYEKIGVHVVVAA; Peptide with targeting and/or antimicrobial activity)	Mycobacteria spp.
PF-781 (PLVVVNHRRAERSRG; Peptide with targeting and/or antimicrobial activity)	Mycobacteria spp.
PF-782 (TGPRRGIDLTSNRALSEVLDEGLELNSRK; Peptide with targeting and/or antimicrobial activity)	Mycobacteria spp.
PF-783 (FTSEVRGVFTYRVNKAGLITNMRGYWNLDMMTFGNQE; Peptide with targeting and/or antimicrobial activity)	Mycobacteria spp.
PF-784 (MAMTTVDNIVGLVIAVALMAFLFAALLFPEKF; Peptide with targeting and/or antimicrobial activity)	Mycobacteria spp.
